Measurements published in patent US12077503B2, “Substituted cyclic amides and their use as herbicides” (FMC CORPORATION, priority 2015, dated 2024).

What was measured:
Format in all cases: in vivo
[1] = system: sedge, umbrella (small-flower umbrella sedge, Cyperus difformis); assay: Test B flooded paddy test; conditions: Cyperus difformis, Flood, 250 g ai/ha; scale of 0 to 100 where 0 is no effect and 100 is complete control; read-out: Sedge, Umbrella plant response rating
Procedure, shortened: (§1)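 Rating scale 0–100 (visual, vs untreated controls) after a 13–15 d greenhouse period; application to the flood layer, 3 cm above soil and maintained; plants at 2-leaf stage when treated.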

[2] = system: rice (Oryra sativa); assay: Test B flooded paddy test; conditions: Oryza sativa, Flood, 250 g ai/ha; scale of 0 to 100 where 0 is no effect and 100 is complete control; read-out: Rice plant response rating
Procedure, shortened: as §1

[3] = system: ducksalad (Heteranthera limosa); assay: Test B flooded paddy test; conditions: Heteranthera limosa, Flood, 250 g ai/ha; scale of 0 to 100 where 0 is no effect and 100 is complete control; read-out: Ducksalad plant response rating
Procedure, shortened: as §1

[4] = system: barnyardgrass (Echinochloa crus-galli); assay: Test B flooded paddy test; conditions: Echinochloa crus-galli, Flood, 250 g ai/ha; scale of 0 to 100 where 0 is no effect and 100 is complete control; read-out: Barnyardgrass plant response rating
Procedure, shortened: as §1

[5] = system: ryegrass, Italian (Italian ryegrass, Lolium multiflorum); assay: Test A postemergence; conditions: Lolium multiflorum, post-emergence, 240 h, 125 g ai/ha, postemergence; visual injury after approximately 10 d; 0 to 100 scale (0 no effect, 100 complete control); read-out: Plant response rating, Ryegrass, Italian
Procedure, shortened: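 Preemergence soil spray on seeded pots or post-emergence spray on 1–2 leaf plants, in loam–sand blend. Greenhouse ~10 d. Visual rating 0–100 against untreated plants.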

[6] = system: ivy-leaved morning glory (Ipomoea hederacea); assay: Test G Post-Emergence Protocol; conditions: Ipomoea, post-emergence, 312 h; for pest or weed control at 15.625 g/ha: 15.625 g ai/ha, evaluated after 13 days (100=total damage to plant; 0=no damage to plant), read-out: Morningglory, Ivy-leaved damage rating; for pest or weed control at 62.5 g/ha: 62.5 g ai/ha, read-out: Morningglory, Ivy-leaved damage rating (100=total damage to plant; 0=no damage to plant); for pest or weed control at 62.5 g/ha / pest or weed control at 250 g/ha: evaluated after 13 days; for pest or weed control at 250 g/ha: 250 g ai/ha, read-out: damage to plant, Morningglory, Ivy-leaved (100=total damage to plant; 0=no damage to plant)
Procedure, shortened: (§2)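 Post-emergence herbicidal damage, scored visually 0–100 at 13 days. Application at 15.625, 62.5 or 250 g/ha onto 8-day-old plants grown under glasshouse control.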

[7] = system: redroot pigweed (Amaranthus retroflexus); assay: Test G Post-Emergence Protocol; conditions: Amaranthus retroflexus, post-emergence, 312 h; for pest or weed control at 15.625 g/ha: 15.625 g ai/ha, evaluated after 13 days (100=total damage to plant; 0=no damage to plant), read-out: Pigweed, Redroot damage rating; for pest or weed control at 62.5 g/ha: 62.5 g ai/ha, read-out: Pigweed, Redroot damage rating (100=total damage to plant; 0=no damage to plant); for pest or weed control at 62.5 g/ha / pest or weed control at 250 g/ha: evaluated after 13 days; for pest or weed control at 250 g/ha: 250 g ai/ha, read-out: damage to plant, Pigweed, Redroot (100=total damage to plant; 0=no damage to plant)
Procedure, shortened: as §2

[8] = system: corn (Zea mays); assay: Test G Post-Emergence Protocol; conditions: Zea mays, post-emergence, 312 h; for plant injury at 15.625 g/ha: 15.625 g ai/ha, evaluated after 13 days (100=total damage to plant; 0=no damage to plant), read-out: Corn damage rating; for plant injury at 62.5 g/ha: 62.5 g ai/ha, read-out: Corn damage rating (100=total damage to plant; 0=no damage to plant); for plant injury at 62.5 g/ha / plant injury at 250 g/ha: evaluated after 13 days; for plant injury at 250 g/ha: 250 g ai/ha, read-out: damage to plant, Corn (100=total damage to plant; 0=no damage to plant)
Procedure, shortened: as §2

[9] = system: giant foxtail (Setaria faberi); assay: Test G Post-Emergence Protocol; conditions: Setaria faberi, post-emergence, 312 h; for pest or weed control at 15.625 g/ha: 15.625 g ai/ha, evaluated after 13 days (100=total damage to plant; 0=no damage to plant), read-out: Foxtail, Giant damage rating; for pest or weed control at 62.5 g/ha: 62.5 g ai/ha, read-out: Foxtail, Giant damage rating (100=total damage to plant; 0=no damage to plant); for pest or weed control at 62.5 g/ha / pest or weed control at 250 g/ha: evaluated after 13 days; for pest or weed control at 250 g/ha: 250 g ai/ha, read-out: damage to plant, Foxtail, Giant (100=total damage to plant; 0=no damage to plant)
Procedure, shortened: as §2

[10] = system: barnyardgrass (Echinochloa crus-galli); assay: Test G Post-Emergence Protocol; conditions: Echinochloa crus-galli, post-emergence, 312 h; for pest or weed control at 15.625 g/ha: 15.625 g ai/ha, evaluated after 13 days (100=total damage to plant; 0=no damage to plant), read-out: Barnyardgrass damage rating; for pest or weed control at 62.5 g/ha: 62.5 g ai/ha, read-out: Barnyardgrass damage rating (100=total damage to plant; 0=no damage to plant); for pest or weed control at 62.5 g/ha / pest or weed control at 250 g/ha: evaluated after 13 days; for pest or weed control at 250 g/ha: 250 g ai/ha, read-out: damage to plant, Barnyardgrass (100=total damage to plant; 0=no damage to plant)
Procedure, shortened: as §2

[11] = system: velvetleaf (Abutilon theophrasti); assay: Test G Post-Emergence Protocol; conditions: Abutilon theophrasti, post-emergence, 312 h; for pest or weed control at 15.625 g/ha: 15.625 g ai/ha, evaluated after 13 days (100=total damage to plant; 0=no damage to plant), read-out: Velvetleaf damage rating; for pest or weed control at 62.5 g/ha: 62.5 g ai/ha, read-out: Velvetleaf damage rating (100=total damage to plant; 0=no damage to plant); for pest or weed control at 62.5 g/ha / pest or weed control at 250 g/ha: evaluated after 13 days; for pest or weed control at 250 g/ha: 250 g ai/ha, read-out: damage to plant, Velvetleaf (100=total damage to plant; 0=no damage to plant)
Procedure, shortened: as §2

Row | SMILES | pest or weed control at 15.625 g/ha [6] | pest or weed control at 62.5 g/ha [6] | pest or weed control at 250 g/ha [6] | pest or weed control at 15.625 g/ha [7] | pest or weed control at 62.5 g/ha [7] | pest or weed control at 250 g/ha [7] | plant injury at 15.625 g/ha [8] | plant injury at 62.5 g/ha [8] | plant injury at 250 g/ha [8] | pest or weed control at 15.625 g/ha [9] | pest or weed control at 62.5 g/ha [9] | pest or weed control at 250 g/ha [9] | pest or weed control at 15.625 g/ha [10] | pest or weed control at 62.5 g/ha [10] | pest or weed control at 250 g/ha [10] | pest or weed control at 15.625 g/ha [11] | pest or weed control at 62.5 g/ha [11] | pest or weed control at 250 g/ha [11] | also measured
1 | CN1C[C@H](c2ccc(C#N)cc2)[C@@H](C(=O)Nc2cccc(F)c2F)C1=O (racemic) [Compound 775] | – | – | – | – | – | – | – | – | – | – | – | – | – | – | – | – | – | – | pest or weed control at 250 g/ha [1]: 65%; pest or weed control at 250 g/ha [2]: 0%; pest or weed control at 250 g/ha [3]: 75%; pest or weed control at 250 g/ha [4]: 35%; pest or weed control at 125 g/ha [5]: 20%
2 | CN1C[C@@H](c2ccc(C(F)(F)F)cc2)[C@H](C(=O)Nc2ncc(C#N)s2)C1=O (racemic) [Compound 1528] | 0% | 0% | 0% | 0% | 0% | 0% | 0% | 0% | 0% | 0% | 0% | 0% | 0% | 0% | 0% | 0% | 0% | 0% | –
3 | CN1C[C@H](c2ccc3occc3c2)[C@@H](C(=O)Nc2cccc(F)c2F)C1=O (racemic) [Compound 1500] | 0% | 0% | 10% | 0% | 0% | 0% | 10% | 10% | 60% | 40% | 60% | 60% | 10% | 60% | 60% | 0% | 0% | 20% | –
4 | CN1C[C@@H](c2ccc(C(F)(F)F)cc2)[C@H](C(=O)Nc2ccno2)C1=O (racemic) [Compound 1513] | 0% | 0% | 0% | 0% | 0% | 0% | 0% | 0% | 0% | 0% | 0% | 0% | 0% | 0% | 0% | 0% | 0% | 0% | –
5 | CN1C[C@@H](c2ccc(C(F)(F)F)cc2)[C@H](C(=O)Nc2ccccc2)C1=O (racemic) [Compound 1404] | 0% | 10% | 30% | 20% | 40% | 30% | 20% | 20% | 40% | 0% | 50% | 70% | 10% | 20% | 40% | 10% | 20% | 20% | –
6 | CN1C[C@@H](c2ccc(C(F)(F)F)cc2)[C@H](C(=O)Nc2cc[nH]n2)C1=O (racemic) [Compound 1533] | 0% | 0% | 0% | 0% | 0% | 0% | 0% | 0% | 0% | 0% | 0% | 0% | 0% | 0% | 0% | 0% | 0% | 0% | –
7 | CN1C[C@@H](c2ccc(C(F)(F)F)cc2)[C@H](C(=O)Nc2cc(C(F)(F)F)nn2C)C1=O (racemic) [Compound 1510] | 0% | 0% | 0% | 0% | 0% | 20% | 0% | 0% | 10% | 0% | 0% | 0% | 0% | 0% | 0% | 0% | 0% | 0% | –
